Measurements from article PMC8951032, “Study of Biological Activities and ADMET-Related Properties of Novel Chlorinated N-arylcinnamamides” (International Journal of Molecular Sciences, 2022).
Converted amounts (≈) assume the structure as drawn. Like-named read-outs stand apart in the source and are kept apart here.

Columns and labels:
[1] = tested on: porcine monocyte-derived macrophages (MDM); experiment: In vitro cell viability, CCK-8; assay type: cell-based; conditions: Sus scrofa, Macrophage, 10% fetal bovine serum
Method: The effect of the compounds on viability of eukaryotic cells was evaluated on human leukemia cell line THP-1, human synovial cell line SW982, and isolated primary porcine monocytes-delivered macrophages (MDM). The general cytotoxic effect was studied on THP-1 cells in the serum-free medium (only THP-1 as the only cells used in this study are able to survive in serum-free medium). Most of the compounds had no cytotoxic effect on THP-1 cells. […] This could be caused by the direct interaction of such compounds with serum proteins or by the effect of mitogens, cytokines, and hormones present in the serum. Obviously, the full medium is closer to physiological conditions in living organisms, so it can be assumed that these compounds could be non-toxic there.
Porcine monocyte-derived macrophages (MDMs) were prepared, as described previously. Briefly, blood was collected from three-month-old pigs and peripheral blood mononuclear cells (PBMC) were isolated by gradient centrifugation (830× g, 40 min) using Histopaque-1077 (Sigma). CD14+ cells were isolated by positive magnetic bead selection with LS separation columns (Miltenyi Biotec, Bergisch Gladbach, Germany). Isolated monocytes were cultured in 96-well plates at a concentration of 1 × 10^5 cells per well in 0.2 mL of DMEM supplemented with 10% FBS and 1% antibiotics (Antibiotic Antimycotic Solution 100 × 10,000 units penicillin, 10 mg streptomycin, and 25 μg amphotericin B per mL; Sigma) and incubated for five days at 37 °C in 5% CO2 to differentiate into macrophages. Then, MDMs were cultured for 24 h with tested substances and the relative cell viability was determined by CCK-8 kit (Sigma) following manufacturer instructions.

[2] = tested on: methicillin-resistant S. aureus SA 630; experiment: In vitro antistaphylococcal activity, microtitration broth MIC; assay type: cell-based; conditions: Staphylococcus aureus
[3] = tested on: Enterococcus faecalis ATCC 29212; experiment: In vitro antienterococcal activity, microtitration broth MIC; assay type: cell-based
THP-1 cells = experiment: Cell death assay by flow cytometry (Annexin V / LIVE/DEAD); assay type: cell-based, human; conditions: serum-free medium, 24 h
Method: Subsequently, compounds 2k and 2q were selected for analysis by flow cytometry and cytotoxic effects were detected after treatment of cells by 2k and 2q in serum-free medium at two selected concentrations, 1.0 µM and 0.5 µM, respectively. […] Moreover, 2k increased the number of dead cells (20%) (Figure 2). […] Thus, it can be assumed that 2k attenuates cell metabolism.
Annexin V eFluor450 (Invitrogene, Waltham, MA, USA) with LIVE/DEAD Fixable Far Red Dead Cell Stain Kit (Invitrogene) were used for the analysis of cell death. THP-1 cells resuspended in serum-free medium and treated by two selected drugs, such as 2q and 2k, by IC50 concentrations, 0.5 µM and 1.0 µM, respectively, for 24 h. Cells were double-stained by AnnexinV eFluor 450 (1:20) and LIVE/DEAD Fixable Far Red (3:1000). Finally, the cells were analysed by flow cytometer (Amnis CellStream; Luminex, Austin, TX, USA) and the data were evaluated by CellStream Analysis 1.2.55 software. The dot plots were divided into four quadrants. Live cells (low left quadrant), apoptosis (upper-left quadrant) and necrosis as a terminal stage of cell death (upper-right quadrant) were distinguished. Experiments were performed in duplicates and in three independent repetitions.

[4] = 24 h, read-out: IC50 MDM 10% FSB
[5] = read-out: log(1/IC50 [M]) MDM 10% FSB (converted)
[6] = 24 h, MRSA SA 630, read-out: log(1/MIC [M]) MRSA2 (converted)
[7] = MRSA SA 630, 24 h, read-out: MIC MRSA2
[8] = ATCC29212, 24 h, E. faecalis reference strain, read-out: log(1/MIC [M]) EF (converted)
[9] = ATCC29212, E. faecalis reference strain, 24 h, read-out: MIC EF

| Structure (SMILES) | IC50 [1, 4] [M] | IC50 [1, 5] [M] | MIC [2, 6] [M] | MIC [2, 7] [M] | MIC [3, 8] [M] | MIC [3, 9] [M] | number of dead cells (THP-1 cells; 2k 1.0 µM) [%] | apoptosis (in words) (THP-1 cells; 2q 0.5 µM) | necrosis (in words) (THP-1 cells; 2q 0.5 µM) |
| --- | --- | --- | --- | --- | --- | --- | --- | --- | --- |
| O=C(/C=C/c1ccc(Cl)cc1)Nc1cccc(C(F)(F)F)c1 [1i, (2E)-3-(4-Chlorophenyl)-N-[3-(trifluoromethyl)phenyl]prop-2-enamide] | > 1e-05 | > 1e-05 | 3.09e-06 (≈ 1.01 µg/mL) | 3.07e-06 (≈ 1 µg/mL) | > 0.000794 | > 0.000786 | – | – | – |
| O=C(/C=C/c1ccc(Cl)cc1)Nc1cc(Cl)cc(Cl)c1 [1p, (2E)-3-(4-Chlorophenyl)-N-(3,5-dichlorophenyl)prop-2-enamide] | > 1e-05 | > 1e-05 | 3.8e-07 (≈ 0.124 µg/mL) | 3.83e-07 (≈ 0.125 µg/mL) | > 0.000776 | > 0.000783 | – | – | – |
| O=C(/C=C/c1ccc(Cl)cc1)Nc1cc(C(F)(F)F)cc(C(F)(F)F)c1 [1q, (2E)-N-[3,5-bis(Trifluoromethyl)phenyl]-3-(4-chlorophenyl)prop-2-enamide] | > 1e-05 | > 1e-05 | 3.16e-07 (≈ 0.125 µg/mL) | 3.18e-07 (≈ 0.125 µg/mL) | 0.000324 (≈ 127 µg/mL) | 0.000325 (≈ 128 µg/mL) | – | – | – |
| O=C(/C=C/c1ccc(Cl)c(Cl)c1)Nc1ccccc1 [2a, (2E)-3-(3,4-Dichlorophenyl)-N-phenylprop-2-enamide] | > 1e-05 | > 1e-05 | > 0.000871 | > 0.000876 | 0.000871 (≈ 254 µg/mL) | 0.000876 (≈ 256 µg/mL) | – | – | – |
| O=C(/C=C/c1ccc(Cl)c(Cl)c1)Nc1cccc(C(F)(F)F)c1 [2i, (2E)-3-(3,4-Dichlorophenyl)-N-[3-(trifluoromethyl)phenyl]prop-2-enamide] | > 1e-05 | > 1e-05 | 1.38e-06 (≈ 0.497 µg/mL) | 1.39e-06 (≈ 0.501 µg/mL) | 2.24e-05 (≈ 8.06 µg/mL) | 2.22e-05 (≈ 8 µg/mL) | – | – | – |
| O=C(/C=C/c1ccc(Cl)c(Cl)c1)Nc1ccc(C(F)(F)F)cc1 [2j, (2E)-3-(3,4-Dichlorophenyl)-N-[4-(trifluoromethyl)phenyl]prop-2-enamide] | > 1e-05 | > 1e-05 | 3.72e-07 (≈ 0.134 µg/mL) | 3.71e-07 (≈ 0.134 µg/mL) | 1.12e-05 (≈ 4.04 µg/mL) | 1.11e-05 (≈ 4 µg/mL) | – | – | – |
| O=C(/C=C/c1ccc(Cl)c(Cl)c1)Nc1ccc(OC(F)(F)F)cc1 [2k, (2E)-3-(3,4-Dichlorophenyl)-N-[4-(trifluoromethoxy)phenyl]prop-2-enamide] | > 1e-05 | > 1e-05 | 1.32e-06 (≈ 0.496 µg/mL) | 1.33e-06 (≈ 0.5 µg/mL) | 4.68e-06 (≈ 1.76 µg/mL) | 1.06e-05 (≈ 3.99 µg/mL) | 20 | – | – |
| O=C(/C=C/c1ccc(Cl)c(Cl)c1)Nc1cc(C(F)(F)F)cc(C(F)(F)F)c1 [2q, (2E)-N-[3,5-bis(Trifluoromethyl)phenyl]-3-(3,4-dichlorophenyl)prop-2-enamide] | 5e-06 to 1e-05 | – | 1.35e-07 (≈ 0.0578 µg/mL) | 1.36e-07 (≈ 0.0582 µg/mL) | 1.07e-05 (≈ 4.59 µg/mL) | 4.67e-06 (≈ 2 µg/mL) | – | not observed | significantly induced |
